# Results published in patent US8895745B2, “Bicyclic heterocyclic compounds as FGFR inhibitors” (Astex Therapeutics Limited, priority 2006, dated 2014).
# Where a name gives a salt, the structure may show the parent alone.
# Tested on: LP-1 cell line
# Experiment: Cell-based pERK ELISA method, LP-1 cells
# Settings: Homo sapiens, LP-1, read-out: IC50 less than 1 μM or at least 50% inhibition at a concentration of 1 μM, LP-1 pERK ELISA
row,SMILES,IC50
1,"COc1ncc(-c2cnc3c(-c4cccc(NC(=O)NCC(F)(F)F)c4)cnn3c2)cn1 [Example 151, 1-{3-[6-(2-Methoxy-pyrimidin-5-yl)-pyrazolo[1,5-a]pyrimidin-3-yl]-phenyl}-3-(2,2,2-trifluoro-ethyl)-urea]",< 1000 nM
2,"O=C(NCC(F)(F)F)Nc1cccc(-c2cnn3cc(-c4cn[nH]c4)cnc23)c1 [Example 155, 1-{3-[6-(1H-Pyrazol-4-yl)-pyrazolo[1,5-a]pyrimidin-3-yl]-phenyl}-3-(2,2,2-trifluoro-ethyl)-urea Hydrochloride]",< 1000 nM
3,"Cn1cc(-c2cnc3c(-c4cccc(NC(=O)NCC(F)(F)F)c4)cnn3c2)ccc1=O [Example 158, 1-{3-[6-(1-Methyl-6-oxo-1,6-dihydro-pyridin-3-yl)-pyrazolo[1,5-a]pyrimidin-3-yl]-phenyl}-3-(2,2,2-trifluoro-ethyl)-urea]",< 1000 nM
4,"CCNC(=O)Nc1cccc(-n2cnc3cc(-c4ccc(F)cc4)ccc32)c1 [Example 159, 1-Ethyl-3-{3-[5-(4-fluoro-phenyl)-benzoimidazol-1-yl]-phenyl}-urea Hydrochloride]",< 1000 nM
5,"O=C(NCC(F)(F)F)Nc1cccc(-c2cnn3cc(-c4cccc(C(=O)N5CCOCC5)c4)cnc23)c1 [Example 165, 1-(3-{6-[3-(Morpholine-4-carbonyl)-phenyl]-pyrazolo[1,5-a]pyrimidin-3-yl}-phenyl)-3-(2,2,2-trifluoro-ethyl)-urea]",< 1000 nM
6,"CCNC(=O)Nc1cccc(-n2cnc3cc(-c4ccc(F)cc4)cnc32)c1 [Example 169, 1-Ethyl-3-{3-[6-(4-fluoro-phenyl)-imidazo[4,5-b]pyridin-3-yl]-phenyl}-urea]",< 1000 nM
7,"O=C(NCC(F)(F)F)Nc1cccc(-c2cnc3cc(-c4ccc(F)nc4)ccn23)c1 [Example 174, 1-{3-[7-(6-Fluoro-pyridin-3-yl)-imidazo[1,2-a]pyridin-3-yl]-phenyl}-3-(2,2,2-trifluoro-ethyl)-urea]",< 1000 nM
8,"O=C(NCC(F)(F)F)Nc1cccc(-n2cnc3cc(-c4ccc(F)cc4)ccc32)c1 [Example 175, 1-{3-[5-(4-Fluoro-phenyl)-benzoimidazol-1-yl]-phenyl}-3-(2,2,2-trifluoro-ethyl)-urea]",< 1000 nM
9,"CCS(=O)(=O)N1CCN(c2ccn3c(-c4cccc(NC(=O)NCC(F)(F)F)c4)cnc3c2)CC1 [Example 177, 1-{3-[7-(4-Ethanesulfonyl-piperazin-1-yl)-imidazo[1,2-a]pyridin-3-yl]-phenyl}-3-(2,2,2-trifluoro-ethyl)-urea hydrochloride salt]",< 1000 nM
10,O=C(NCC(F)(F)F)Nc1cccc(-n2cnc3cc(-c4ccc(F)cc4)cnc32)c1 [Example 179],< 1000 nM
11,Cc1ccc(-c2cnc3c(-c4cccc(NC(=O)NCC(F)(F)F)c4)cnn3c2)o1 [Example 180],< 1000 nM
12,"O=C(NCC(F)(F)F)Nc1cccc(-c2cnc3cc(-c4cccc(CN5CCOCC5)c4)ccn23)c1 [Example 184, 1-{3-[7-(3-Morpholin-4-ylmethyl-phenyl)-imidazo[1,2-a]pyridin-3-yl]-phenyl}-3-(2,2,2-trifluoro-ethyl)-urea Hydrochloride]",< 1000 nM
13,"O=C(NCC(F)(F)F)Nc1cccc(-c2cnn3cc(-c4cccc(CN5CCOCC5)c4)cnc23)c1 [Example 189, 1-{3-[6-(3-Morpholin-4-ylmethyl-phenyl)-pyrazolo[1,5-a]pyrimidin-3-yl]-phenyl}-3-(2,2,2-trifluoro-ethyl)-urea Hydrochloride]",< 1000 nM
14,"CC(=O)N1CCC(Oc2cccc(-c3ccn4c(-c5cccc(NC(=O)NCC(F)(F)F)c5)cnc4c3)c2)CC1 [Example 193, 1-(3-{7-[3-(1-Acetyl-piperidin-4-yloxy)-phenyl]-imidazo[1,2-a]pyridin-3-yl}-phenyl)-3-(2,2,2-trifluoro-ethyl)-urea Formate]",< 1000 nM
15,"CCNC(=O)Nc1cncc(-c2cnn3cc(-c4ccc(F)cc4)cnc23)c1 [Example 197, 1-Ethyl-3-{5-[6-(4-fluoro-phenyl)-pyrazolo[1,5-a]pyrimidin-3-yl]-pyridin-3-yl}-urea]",< 1000 nM
16,"O=C(NCC(F)(F)F)Nc1cccc(-c2cnc3cc(-c4cccc(OC5CCNCC5)c4)ccn23)c1 [Example 200, 1-(3-{7-[3-(Piperidin-4-yloxy)-phenyl]-imidazo[1,2-a]pyridin-3-yl}-phenyl)-3-(2,2,2-trifluoro-ethyl)-urea]",< 1000 nM
17,"O=C(NCC(F)(F)F)Nc1cccc(-c2cnc3cc(N4CCC4)ccn23)c1 [Example 202, 1-[3-(7-Azetidin-1-yl-imidazo[1,2-a]pyridin-3-yl)-phenyl]-3-(2,2,2-trifluoro-ethyl)-urea]",< 1000 nM
18,"CCNC(=O)Nc1cc(-c2cnn3cc(-c4ccc(F)cc4)cnc23)ccn1 [Example 204, 1-Ethyl-3-{4-[6-(4-fluoro-phenyl)-pyrazolo[1,5-a]pyrimidin-3-yl]-pyridin-2-yl}-urea]",< 1000 nM
19,"O=C1CN(Cc2cccc(-c3ccn4c(-c5cccc(NC(=O)NCC(F)(F)F)c5)cnc4c3)c2)CCN1 [Example 206, 1-(3-{7-[3-(3-Oxo-piperazin-1-ylmethyl)-phenyl]-imidazo[1,2-a]pyridin-3-yl}-phenyl)-3-(2,2,2-trifluoro-ethyl)-urea]",< 1000 nM

row,SMILES,IC50
1,"O=C(NCC(F)(F)F)Nc1cccc(-c2cnc3cc(-c4ccc(=O)n(CCCN5CCCCC5)c4)ccn23)c1 [Example 208, 1-(3-{7-[6-Oxo-1-(3-piperidin-1-yl-propyl)-1,6-dihydro-pyridin-3-yl]-imidazo[1,2-a]pyridin-3-yl}-phenyl)-3-(2,2,2-trifluoro-ethyl)-urea Hydrochloride]",< 1000 nM
2,"O=C(NCC(F)(F)F)Nc1cccc(-c2cnc3cc(-c4ccnc(OC5CCOCC5)c4)ccn23)c1 [Example 212, 1-(3-{7-[2-(Tetrahydro-pyran-4-yloxy)-pyridin-4-yl]-imidazo[1,2-a]pyridin-3-yl}-phenyl)-3-(2,2,2-trifluoro-ethyl)-urea]",< 1000 nM
3,"N#Cc1cc(NC(=O)NCC(F)(F)F)cc(-c2cnc3cc(-c4ccc(F)cc4)ccn23)c1 [Example 214, 1-{3-Cyano-5-[7-(4-fluoro-phenyl)-imidazo[1,2-a]pyridin-3-yl]-phenyl}-3-(2,2,2-trifluoro-ethyl)-urea]",< 1000 nM
4,"CCNC(=O)Nc1cc(OC)cc(-c2cnc3cc(-c4ccc(F)cc4)ccn23)c1 [Example 216, 1-Ethyl-3-{3-[7-(4-fluoro-phenyl)-imidazo[1,2-a]pyridin-3-yl]-5-methoxy-phenyl}-urea]",< 1000 nM
5,"COc1cc(NC(=O)NCC(F)(F)F)cc(-c2cnc3cc(-c4ccc(F)cc4)ccn23)c1 [Example 217, 1-{3-[7-(4-Fluoro-phenyl)-imidazo[1,2-a]pyridin-3-yl]-5-methoxy-phenyl}-3-(2,2,2-trifluoro-ethyl)-urea]",< 1000 nM
6,"O=C(NCC(F)(F)F)Nc1cncc(-c2cnc3cc(-c4ccc(F)cc4)ccn23)c1 [Example 218, 1-{5-[7-(4-Fluoro-phenyl)-imidazo[1,2-a]pyridin-3-yl]-pyridin-3-yl}-3-(2,2,2-trifluoro-ethyl)-urea]",< 1000 nM
7,"O=C(NCC(F)(F)F)Nc1cccc(-c2cnc3cc(-c4cccc(CO)c4)ccn23)c1 [Example 219, 1-{3-[7-(3-Hydroxy-methyl-phenyl)-imidazo[1,2-a]pyridin-3-yl]-phenyl}-3-(2,2,2-trifluoro-ethyl)-urea]",< 1000 nM
8,"CN1CCN(C(=O)c2cccc(-c3ccn4c(-c5cccc(NC(=O)NCC(F)(F)F)c5)cnc4c3)c2)CC1 [Example 220, 1-(3-{7-[3-(4-Methyl-piperazine-1-carbonyl)-phenyl]-imidazo[1,2-a]pyridin-3-yl}-phenyl)-3-(2,2,2-trifluoro-ethyl)-urea]",< 1000 nM
9,Cc1ccn2c(-c3cccc(NC(=O)NCC(F)(F)F)c3)cnc2c1 [Example 225],< 1000 nM
10,CCNC(=O)Nc1cccc(-c2cnc3cc(-c4cccc(CN5CCN(C)CC5)c4)ccn23)c1 [Example 227],< 1000 nM
11,O=C(NCC(F)(F)F)Nc1cccc(-c2cnc3cc(Cl)ccn23)c1 [Example 228],< 1000 nM
12,"O=C(NCC(F)F)Nc1cccc(-c2cnc3cc(-c4ccc(F)cc4)ccn23)c1 [Example 229, 1-(2,2-Difluoro-ethyl)-3-{3-[7-(4-fluoro-phenyl)-imidazo[1,2-a]pyridin-3-yl]-phenyl}-urea Hydrochloride]",< 1000 nM
13,"Cc1nn(C)c(C)c1-c1ccn2c(-c3cccc(NC(=O)NCC(F)(F)F)c3)cnc2c1 [Example 234, 1-(2,2,2-Trifluoro-ethyl)-3-{3-[7-(1,3,5-trimethyl-1H-pyrazol-4-yl)-imidazo[1,2-a]pyridin-3-yl]-phenyl}-urea]",< 1000 nM
14,"CC(C)Oc1cc(NC(=O)NCC(F)(F)F)cc(-c2cnc3cc(-c4ccc(F)cc4)ccn23)c1 [Example 238, 1-{3-[7-(4-Fluoro-phenyl)-imidazo[1,2-a]pyridin-3-yl]-5-isopropoxy-phenyl}-3-(2,2,2-trifluoro-ethyl)-urea]",< 1000 nM
15,"CS(=O)(=O)NCc1cccc(-c2ccn3c(-c4cccc(NC(=O)NCC(F)(F)F)c4)cnc3c2)c1 [Example 239, N-[3-(3-{3-[3-(2,2,2-Trifluoro-ethyl)-ureido]-phenyl}-imidazo[1,2-a]pyridin-7-yl)-benzyl]-methane-sulfonamide]",< 1000 nM
16,"O=C(NCC(F)(F)F)Nc1cccc(-c2cnc3cc(-c4cnco4)ccn23)c1 [Example 240, 1-[3-(7-Oxazol-5-yl-imidazo[1,2-a]pyridin-3-yl)-phenyl]-3-(2,2,2-trifluoro-ethyl)-urea]",< 1000 nM
17,"O=C(NCC(F)(F)F)Nc1cccc(-c2cnc3cc(-c4cccc(NC5CCOCC5)c4)ccn23)c1 [Example 244, 1-(3-{7-[3-(Tetrahydro-pyran-4-ylamino)-phenyl]-imidazo[1,2-a]pyridin-3-yl}-phenyl)-3-(2,2,2-trifluoro-ethyl)-urea]",< 1000 nM
18,"CN1CCN(c2ccc(-c3ccn4c(-c5cccc(NC(=O)NCC(F)(F)F)c5)cnc4c3)cc2)CC1 [Example 245, 1-(3-{7-[4-(4-Methyl-piperazin-1-yl)-phenyl]-imidazo[1,2-a]pyridin-3-yl}-phenyl)-3-(2,2,2-trifluoro-ethyl)-urea Acetic acid]",< 1000 nM
